One series concerns HT-29. Description: Cytotoxicity against human HT-29 cells after 48 hrs using resazurin by microplate fluorometer analysis. The settings on record: HT-29, 48 h. Type of series: functional, cell-based.
Series [1] is described as follows: Binding affinity to bovine tubulin after 1 hr by spectrofluorometric analysis. Set-up: species or system Bos taurus.
For series [2], the system named is HeLa. The experiment in a line: Induction of cell cycle arrest in human HeLa cells assessed as accumulation at G0/G1 phase at 10 nM after 18 hrs by propidium iodide based flow cytometric analysis (reference value: 43.9 %). In kind it is functional.
The test system of series [3] is HeLa. The experiment in a line: Induction of cell cycle arrest in human HeLa cells assessed as accumulation at S phase at 10 nM after 18 hrs by propidium iodide based flow cytometric analysis (reference value: 39.9 %). In kind it is functional.
For series [4], the system named is HeLa. The experiment in a line: Induction of cell cycle arrest in human HeLa cells assessed as accumulation at G2/M phase at 10 nM after 18 hrs by propidium iodide based flow cytometric analysis (reference value: 16.2 %). In kind it is functional.
In series [5] the test system is HeLa. The experiment in a line: Induction of cell cycle arrest in human HeLa cells assessed as accumulation at G0/G1 phase at 30 nM after 18 hrs by propidium iodide based flow cytometric analysis (reference value: 43.9 %). Type of series: functional.
Series [6] deals with HeLa. The experiment in a line: Induction of cell cycle arrest in human HeLa cells assessed as accumulation at S phase at 30 nM after 18 hrs by propidium iodide based flow cytometric analysis (reference value: 39.9 %). In kind it is functional.
The subject of series [7] is HeLa. The experiment in a line: Induction of cell cycle arrest in human HeLa cells assessed as accumulation at G2/M phase at 30 nM after 18 hrs by propidium iodide based flow cytometric analysis (reference value: 16.2 %). In kind it is functional.
The nature of series [8]: Inhibition of bovine brain tubulin polymerization by thermostatic spectrophotometer. Set-up: species or system Bos taurus.
In series [9] the test system is HeLa. Description: Induction of cell cycle arrest in human HeLa cells assessed as accumulation at G0/G1 phase at 3 nM after 18 hrs by propidium iodide based flow cytometric analysis (reference value: 43.9 %). Type of series: functional.
Series [10] relates to HeLa. Description: Induction of cell cycle arrest in human HeLa cells assessed as accumulation at S phase at 3 nM after 18 hrs by propidium iodide based flow cytometric analysis (reference value: 39.9 %). In kind it is functional.
Series [11] concerns HeLa. Description: Induction of cell cycle arrest in human HeLa cells assessed as accumulation at G2/M phase at 3 nM after 18 hrs by propidium iodide based flow cytometric analysis (reference value: 16.2 %). In kind it is functional.
Series [12] relates to HUVEC. Description: Cytotoxicity against HUVEC after 48 hrs using resazurin by microplate fluorometer analysis. Type of series: cell-based. The settings on record: Homo sapiens.
The subject of series [13] is HUVEC. The experiment in a line: Induction of microtubule depolymerization in HUVEC after 30 mins by DAPI staining method. In kind it is cell-based. The conditions noted are these: Homo sapiens.
The test system of series [14] is DU-145. Description: Antitumor activity against human DU145 cells xenografted in nu/nu mouse assessed as tumor growth inhibition at 7.5 mg/kg, ip administered on day 1, 3, 5, 8 and […] measured on day 40 relative to control. Type of series: functional. The settings on record: DU-145, ip, route intraperitoneal, read-out: TGI.
Series [15] deals with HeLa. The experiment in a line: Induction of cell cycle arrest in human HeLa cells assessed as accumulation at G0/G1 phase at 100 nM after 18 hrs by propidium iodide based flow cytometric analysis (reference value: 43.9 %). In kind it is functional.
The subject of series [16] is HeLa. The experiment in a line: Induction of cell cycle arrest in human HeLa cells assessed as accumulation at S phase at 100 nM after 18 hrs by propidium iodide based flow cytometric analysis (reference value: 39.9 %). Type of series: functional.
Series [17] relates to HeLa. Description: Induction of cell cycle arrest in human HeLa cells assessed as accumulation at G2/M phase at 100 nM after 18 hrs by propidium iodide based flow cytometric analysis (reference value: 16.2 %). In kind it is functional.
For another series, the system named is Mus musculus. The experiment in a line: Toxicity in nu/nu mouse assessed as weight loss at 1.25 to 7.5 mg/kg, ip after 40 days. The conditions noted are these: in vivo, 960 h. Type of series: organism-based.
The subject of series [18] is DU-145. The experiment in a line: Antitumor activity against human DU145 cells xenografted in nu/nu mouse assessed as tumor growth inhibition at […], ip administered on day 1, 3, 5, 8 and […] measured on day 40 relative to control. Type of series: functional. The settings on record: DU-145, ip, read-out: TGI.
In series [19] the test system is DU-145. Description: Antitumor activity against human DU145 cells xenografted in nu/nu mouse assessed as tumor growth inhibition at 3.75 mg/kg, ip administered on day 1, 3, 5, 8 and […] measured on day 40 relative to control. In kind it is functional. The conditions noted are these: DU-145, ip, route intraperitoneal, read-out: TGI.
Series [20] relates to DU-145. The settings on record: Homo sapiens.

SMILES strings stand for the structures.

For `COc1cc(/C=c2\[nH]c(=O)/c(=C/c3nc[nH]c3C(C)(C)C)[nH]c2=O)cc(OC)c1`, the IC50 with HT-29 came to 45.4 nM.
For `COc1cc2c(c(OC)c1OC)-c1ccc(OC)c(=O)cc1[C@@H](NC(C)=O)CC2` [COLCHICINE], in [1], binding was characterised by a dissociation constant (Kd) of […]. In addition, the IC50 in the series on HT-29 was 16 nM. The Activity was 47.5% with HeLa [2]; 31.5% in the series with HeLa [3]; 21% in the series on HeLa [4]; 1.3% in the series on HeLa [5]; 8.9% in the series with HeLa [6]; 89.9% with HeLa [7].
For `COc1ccc(/C=C\c2cc(OC)c(OC)c(OC)c2)cc1O` [COMBRETASTATIN A4], the results for the IC50 (in series [8]; in the series with HUVEC [12]) were 550 nM and 2.4 nM, respectively. For the same compound, the Activity in the series with HeLa [2] came out at 0.4%; in the series on HeLa [3] it was 8.8%; in the series on HeLa [4] it was 90.7%; in the series on HeLa [9], 34.6%; with HeLa [10], 28.1%; in the series with HeLa [11], 37.4%. Moreover, the ED100 with HUVEC [13] is 10 nM.
Turning to `CC(C)(C)c1[nH]cnc1/C=c1\[nH]c(=O)/c(=C/c2ccccc2)[nH]c1=O` [PLINABULIN], the inhibition in vivo at 7.5 mg/kg in the series with DU-145 [14] was found to be 58.5%. The affinity in [1], expressed as Kd, was 1000 nM. The values for the half-maximal inhibitory concentration (IC50) (in series [8]; with HUVEC [12]) were 1310 nM and 11 nM, respectively. In addition, the Activity came to 44.6% in the series with HeLa [2]; 37.5% with HeLa [3]; 17.9% with HeLa [4]; 4.2% in the series on HeLa [5]; 40.4% in the series on HeLa [6]; 55.3% in the series with HeLa [7]. Moreover, the Activity in the series on HeLa [15] is listed as 0%; in the series with HeLa [16], 2.4%; with HeLa [17], 97.6%; in the series on Mus musculus, “Non-toxic”. This compound also had an ED100 in the series with HUVEC [13] of 3 nM. Besides, the inhibition in vivo at […] with DU-145 [18] was determined as 29%. In addition, the inhibition in vivo at 3.75 mg/kg with DU-145 [19] was found to be 38.6%. Also, the TGI result with DU-145 [20] was “Dose-dependent effect”.

The record behind these values is ChEMBL document CHEMBL2021797, “Synthesis and structure-activity relationship study of antimicrotubule agents phenylahistin derivatives with a didehydropiperazine-2,5-dione structure” (J Med Chem, 2012).
